Data on 30 compounds can be found in patent US6552048B2, “Sulfonylcarboxamide derivatives, process for their preparation and their use as pharmaceuticals” (Aventis Pharma Deutschland GmbH, priority 1999, dated 2003).

For test [1], the system named is human LDL receptor gene promoter region coupled to firefly Luciferase reporter gene in Hep-G2 cell line. The experiment in a line: In vitro determination of LDL receptor induction using the Luciferase assay. Type of test: cell-based. To be noted: for LDL-receptor induction in %, compared with control: comparative test. As for the experimental part: 1) In vitro Determination of LDL Receptor Induction Using the Luciferase Assay
LDL-receptor induction is determined using the Luciferase assay as follows: for this purpose, a regulatory DNA fragment (4 kb) of the human LDL receptor gene which contains the complete promoter region is coupled to the firefly Luciferase reporter gene and stably transfixed into a Hep-G2 cell line. Cells from this line were seeded out on collagen-coated 96-well plates in MEM (minimum essential medium). After 24 hours in culture, the test substances, dissolved in DMSO, were added in final concentrations of 10 nM to 10 μM (final DMSO concentration=2%). The substances were incubated for 12-18 hours overnight (4 wells/conc. in each case), then D-luciferin was added as substrate for the Luciferase, and the luminescence was measured. The measured luminescence as a percentage of the control (control=100%) incubated only with DMSO indicates the extent of the relative LDL-receptor induction (Table 2).
Further details of the method are described in: Current Protocols in Molecular Biology, F. M. Ausubel, R. Brent, R. E. Kingston, D. D. Moore, J. G. Seidman, J. A. Smith and Kevin Struhl editors, J. Wiley and Sons Inc., U.S.A.
A comparative test was carried out by the Luciferase assay described above using 2,4-dichloro-5-(3,5-dimethylpiperidinosulfamoyl)benzoic acid and the compound from Example 42. [drawing 8]

A further test concerns hyperlipidemic hamsters. The experiment in a line: In vivo determination of reduction in LDL cholesterol in hyperlipemic hamsters. Also on record: species or system male Syrian hamsters. The conditions noted are these: vs placebo-treated control. From the text: 2) In vivo Determination of Reduction in LDL Cholesterol in Hamsters.
Cholesterol-lowering effect of LDL-receptor inducers in hyperlipemic hamsters
In this animal experiment, the effect of LDL-receptor inducers after bolus administration to hamsters on a lipid-rich diet was investigated.
The test animals used were male Syrian hamsters (Charles River) with an average body weight of 100-120 g at the start of adaptation. The animals were divided into groups (n=6) on the basis of body weight. Severe hyperlipidemia was induced by feeding with a diet supplemented with 15% butter and 3% cholesterol. The treatment started after preliminary feeding for 2 weeks. The test substances were administered orally by gavage once a day over a period of 10 days. The plasma lipid level was analyzed after 10 days.

Setting [2] is: test compound 1.5 μM, control (DMSO only)=100%, Hep-G2 reporter line.
Setting [3] is: test compound 0.15 μM, control (DMSO only)=100%, Hep-G2 reporter line.
Where [4] appears, read: test compound 0.05 μM, control (DMSO only)=100%, Hep-G2 reporter line.
The mark [5] stands for this setting: 20 mg/kg p.o. once a day for 10 days.
The mark [6] stands for this setting: 10 mg/kg p.o. once a day for 10 days.
Setting [7] is: 40 mg/kg p.o. once a day for 10 days.
Where [8] appears, read: test compound 0.15 μM, control (DMSO only)=100%, Hep-G2 reporter line, 0.15 µM.

In the case of `CN1CCN(c2cc(NCCCc3ccccc3)c(S(=O)(=O)N(C)c3ccccc3)cc2C(=O)N(C)c2ccccc2)CC1` [Example 2], the “LDL-receptor induction (% of control)” value in test [1] (setting [2]) is reported as 225% (1.5 μM).

`CN1CCN(c2cc(NCCc3ccccc3)c(S(=O)(=O)N(C)c3ccccc3)cc2C(=O)N(C)c2ccccc2)CC1` [Example 3]: the “LDL-receptor induction (% of control)” value in test [1] (setting [2]) is recorded as 276% (1.5 μM).

Turning to `CN1CCN(c2cc(NC3CCN(Cc4ccccc4)CC3)c(S(=O)(=O)N(C)c3ccccc3)cc2C(=O)N(C)c2ccccc2)CC1` [Example 4], the “LDL-receptor induction (% of control)” value in test [1] (setting [3]) is 190% (0.15 μM).

`CN1CCN(c2cc(N3CCC(Cc4ccccc4)CC3)c(S(=O)(=O)N(C)c3ccccc3)cc2C(=O)N(C)c2ccccc2)CC1` [Example 9]: the “LDL-receptor induction (% of control)” value in test [1] (setting [3]) is on record as 170% (0.15 μM).

On to `CN1CCN(c2cc(NC3CCN(Cc4ccccc4)CC3)c(S(C)(=O)=O)cc2C(=O)N(C)c2ccccc2)CC1` [Example 14], for which, in test [1] (setting [2]), the “LDL-receptor induction (% of control)” value was 176% (1.5 μM).

As to `CN(C(=O)c1cc(S(=O)(=O)N(C)c2ccccc2)c(N2CCC(Cc3ccccc3)CC2)cc1NCCN1CCCC1)c1ccccc1` [Example 22], the “LDL-receptor induction (% of control)” value in test [1] (setting [3]) was 224% (0.15 μM).

Consider `CN(C(=O)c1cc(S(=O)(=O)N(C)c2ccccc2)c(N2CCC(c3ccccc3)CC2)cc1NCCN1CCCC1)c1ccccc1` [Example 25], for which the results for the “LDL-receptor induction (% of control)” value in test [1] (setting [4]) and in test [1] (setting [2]) were 152% and 346%, respectively.

As to `CN1CCN(c2cc(N3CCC(Cc4ccccc4)CC3)c(S(C)(=O)=O)cc2C(=O)N2CCCCC2)CC1` [Example 30], the “LDL-receptor induction (% of control)” value stood at 199% in test [1] (setting [3]) and 255% in test [1] (setting [2]).

Take `COCCCNC(=O)c1cc(S(C)(=O)=O)c(N2CCC(c3ccccc3)CC2)cc1N1CCN(C)CC1` [Example 34]: the “LDL-receptor induction (% of control)” value was 210% in test [1] (setting [3]) and 291% in test [1] (test compound 4 μM, control (DMSO only)=100%, Hep-G2 reporter line).

Take `CN1CCN(c2cc(N3CCC(c4ccccc4)CC3)c(S(=O)(=O)N3CCCCC3)cc2C(=O)N2CCCCC2)CC1` [Example 37]: in the test with hyperlipidemic hamsters (setting [5]), the “Relative change in plasma LDL cholesterol” value is given as −31%, the “Relative change in plasma total cholesterol” value is recorded as −21% and the “Relative change in plasma triglycerides” value was −46%. Further, the “LDL-receptor induction (% of control)” value in test [1] (setting [3]) worked out at 204%. Also, in test [1] (setting [2]), the “LDL-receptor induction (% of control)” value came to 227%.

On to `CCN(CC)C(=O)c1cc(S(=O)(=O)Cc2ccccc2)c(N2CCC(c3ccccc3)CC2)cc1N(CC)CCN(C)C` [Example 42, 2-[(2-Dimethylaminoethyl)ethylamino]-N,N-diethyl-5-phenylmethane-sulfonyl-4-(4-phenylpiperidin-1-yl)benzamide], for which the activity at 0.05 µM in test [1] (Homo sapiens, HepG2, test compound 0.05 μM, control (DMSO only)=100%, Hep-G2 reporter line) was 149%. The “LDL-receptor induction in %, compared with control” value in test [1] (0.05 μM) came out at 204%; in test [1] (0.15 μM) it was 219%; in test [1] (1.5 μM) it was 250%; in test [1] (4 μM), 278%.

For `CCCCCNC(=O)c1cc(S(C)(=O)=O)c(N2CCC(Cc3ccccc3)CC2)cc1NCCN1CCCC1` [Example 53], the “Relative change in plasma LDL cholesterol” value in the test on hyperlipidemic hamsters (setting [6]) is given as −52%; in the test on hyperlipidemic hamsters (setting [5]), −57%; in the test with hyperlipidemic hamsters (setting [7]), −58%. Further, the figures for the “Relative change in plasma total cholesterol” value in the test on hyperlipidemic hamsters (setting [6]), in the test with hyperlipidemic hamsters (setting [5]) and in the test with hyperlipidemic hamsters (setting [7]) were −7%, −16% and −17%, respectively. Also, the “Relative change in plasma triglycerides” value is “+21%” in the test on hyperlipidemic hamsters (setting [6]), −11% in the test on hyperlipidemic hamsters (setting [5]) and −23% with hyperlipidemic hamsters (setting [7]). Also, the “LDL-receptor induction (% of control)” value in test [1] (setting [4]) is 197%; in test [1] (setting [3]) it was 221%.

For `CCCCCNC(=O)c1cc(S(C)(=O)=O)c(N2CCC(c3ccccc3)CC2)cc1NCCN1CCCC1` [Example 54], in test [1] (setting [8]), the “LDL-receptor induction (% of control)” value is 223% (0.15 μM).

Turning to `COCCCNC(=O)c1cc(S(C)(=O)=O)c(N2CCC(Cc3ccccc3)CC2)cc1NCCN1CCCC1` [Example 57], in test [1] (setting [3]), the “LDL-receptor induction (% of control)” value is 222% (0.15 μM).

On to `COCCCNC(=O)c1cc(S(C)(=O)=O)c(N2CCC(Cc3ccccc3)CC2)cc1N(C)CCN(C)C` [Example 62], for which the “LDL-receptor induction (% of control)” value in test [1] (setting [4]) is recorded as 205% (0.05 μM).

`CN(C)CCN(C)c1cc(N2CCC(Cc3ccccc3)CC2)c(S(C)(=O)=O)cc1C(=O)N1CCCCC1` [Example 67]: the “LDL-receptor induction (% of control)” value in test [1] (setting [3]) was 203% (0.15 μM).

Take `CCCCCNC(=O)c1cc(S(=O)(=O)Cc2ccccc2)c(N2CCC(c3ccc(F)cc3)CC2)cc1N(CC)CCN(C)C` [Example 76]: the “LDL-receptor induction (% of control)” value in test [1] (setting [3]) is listed as 244% (0.15 μM).

As for `CCCCCNC(=O)c1cc(S(=O)(=O)Cc2ccccc2)c(N2CCC(c3ccc(C)cc3)CC2)cc1N(CC)CCN(C)C` [Example 78], in test [1] (setting [3]), the “LDL-receptor induction (% of control)” value is given as 200% (0.15 μM).

In the case of `CCN(CC)C(=O)c1cc(S(=O)(=O)Cc2ccc(F)cc2F)c(N2CCC(c3ccccc3)CC2)cc1N(CC)CCN(C)C` [Example 82], the “LDL-receptor induction (% of control)” value in test [1] (setting [3]) is 227% (0.15 μM).

As for `CCN(CC)C(=O)c1cc(S(=O)(=O)Cc2ccc(C)cc2)c(N2CCC(c3ccccc3)CC2)cc1NCCN1CCCC1` [Example 83], the “LDL-receptor induction (% of control)” value in test [1] (setting [3]) was 212% (0.15 μM).

As for `CCN(CC)C(=O)c1cc(S(=O)(=O)Cc2cccc(OC)c2)c(N2CCC(c3ccccc3)CC2)cc1NCCN1CCCC1` [Example 84], the “LDL-receptor induction (% of control)” value in test [1] (setting [4]) was 240% (0.05 μM).

Take `CCN(CC)C(=O)c1cc(S(=O)(=O)Cc2cccc(OC(F)(F)F)c2)c(N2CCC(c3ccccc3)CC2)cc1NCCN1CCCC1` [Example 91]: the “LDL-receptor induction (% of control)” value in test [1] (setting [4]) is on record as 231% (0.05 μM).

`CCN(CC)C(=O)c1cc(S(=O)(=O)Cc2cc(OC)cc(OC)c2)c(N2CCC(c3ccccc3)CC2)cc1N(CC)CCN(C)C` [Example 96]: the “LDL-receptor induction (% of control)” value in test [1] (setting [4]) is on record as 196% (0.05 μM).

As for `CCN(CCN(C)C)c1cc(N2CCC(c3ccccc3)CC2)c(S(=O)(=O)Cc2ccccc2)cc1C(=O)NCCCCCO` [Example 107], the “LDL-receptor induction (% of control)” value in test [1] (setting [4]) is reported as 288% (0.05 μM).

In the case of `CCN(CC)C(=O)c1cc(S(=O)(=O)Cc2ccc(C(F)(F)F)cc2)c(N2CCC(c3ccccc3)CC2)cc1N(CC)CCN(C)C` [Example 113], in test [1] (setting [4]), the “LDL-receptor induction (% of control)” value was 217% (0.05 μM).

On to `CCN(CC)C(=O)c1cc(S(=O)(=O)Cc2ccc(C#N)cc2)c(N2CCC(c3ccccc3)CC2)cc1N(CC)CCN(C)C` [Example 116], for which the “LDL-receptor induction (% of control)” value in test [1] (setting [4]) was 235% (0.05 μM).

Regarding `CCCCCNC(=O)c1cc(S(C)(=O)=O)c(N2CCC(c3ccccc3)CC2)cc1NCCN1CCCC1.CS(=O)(=O)O` [Example 141, 2-[NH-Ethyl-N-pyyrolidinyl]-NH-pentyl-5-methylsulfonyl-4-(4-phenylpiperidin-1-yl)benzamide], the “LDL-receptor induction (% of control)” value in test [1] (setting [3]) is 280% (0.15 μM).

On to `CCCCCNC(=O)c1cc(S(C)(=O)=O)c(N2CCC(c3ccccc3)CC2)cc1NCCN1CCCC1.Cc1ccc(S(=O)(=O)O)cc1` [Example 142, 2-[NH-Ethyl-N-pyrrolidinyl]-NH-pentyl-5-methylsulfonyl-4-(4-phenylpiperidin-1-yl)benzamide], for which the “LDL-receptor induction (% of control)” value in test [1] (setting [3]) is given as 281% (0.15 μM).

As to `CCCCCNC(=O)c1cc(S(C)(=O)=O)c(N2CCC(c3ccccc3)CC2)cc1NCCN1CCCC1` [Example 143, 2-[NH-Ethyl-N-pyrrolidinyl]-NH-pentyl-5-methylsulfonyl-4-(4-phenylpiperidin-1-yl)benzamide], in test [1] (setting [8]), the “LDL-receptor induction (% of control)” value is 308% (0.15 μM).

As for `CC1CC(C)CN(S(=O)(=O)c2cc(C(=O)O)c(Cl)cc2Cl)C1` (stereo not drawn) [reference compound], the “LDL-receptor induction in %, compared with control” value in test [1] (0.05 μM) stood at 94%; in test [1] (0.15 μM), 90%; in test [1] (1.5 μM), 90%; in test [1] (4 μM), 100%.
